Molecules are shown by their SMILES.

In the test the target is T1, N-formyl peptide receptor 2 (Homo sapiens, UniProt P25090).
T1 sequence (P25090 whole entry): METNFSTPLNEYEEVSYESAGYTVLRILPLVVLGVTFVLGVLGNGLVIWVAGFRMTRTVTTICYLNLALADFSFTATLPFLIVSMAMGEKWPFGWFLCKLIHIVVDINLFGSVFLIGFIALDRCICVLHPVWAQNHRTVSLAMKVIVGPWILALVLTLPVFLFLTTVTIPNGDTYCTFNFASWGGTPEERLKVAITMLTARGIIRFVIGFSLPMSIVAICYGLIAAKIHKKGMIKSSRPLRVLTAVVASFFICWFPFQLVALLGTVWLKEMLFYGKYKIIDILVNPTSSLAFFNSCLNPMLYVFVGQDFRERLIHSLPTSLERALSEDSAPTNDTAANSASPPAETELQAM
As to the kind of experiment: FLIPR: HEK-Gα16 cells stably expressing the human FPR2 receptor was utilized. Cells were plated into 384-well poly-D-lysine coated plates at a density of 18,000 cells per well one day prior to use. The growth media was DMEM medium supplemented with 10% fetal bovine serum (FBS), 1% antibiotic-antimycotic, 50 μg/ml hygromycin, and 400 μg/ml geneticin. On the day of the experiment, the cells were ….

Description: FLIPR: HEK-Gα16 cells stably expressing the human FPR2 receptor was utilized. Cells were plated into 384-well poly-D-lysine coated plates at a density of 18,000 cells per well one day prior to use. The growth media was DMEM medium supplemented with 10% fetal bovine serum (FBS), 1% antibiotic-antimycotic, 50 μg/ml hygromycin, and 400 μg/ml geneticin. On the day of the experiment, the cells were washed twice with Hank's Balanced Salt Solution supplemented with 20 mM HEPES (HBSS/hepes buffer). The cells were then dye loaded with 2 μM Fluo-4 diluted in the HBSS/Hepes buffer and incubated at 37° C. for 40 minutes. Extracellular dye was removed by washing the cell plates four times prior to placing the plates in the FLIPR (Fluorometric Imaging Plate Reader, Molecular Devices). Ligands were diluted in HBSS/Hepes buffer and prepared in 384-well microplates.

`NC(=O)C1C(C(=O)Nc2ccc(Br)cc2)C2CCC1C21CC1` (single isomer, unassigned): the EC50 (as a rule, the concentration at which the effect is half-maximal) is less than 1 nM.

(Values after ChEMBL document CHEMBL5726535, “Use of agonists of formyl peptide receptor 2 for treating ocular inflammatory diseases” (2019).)
